Ten compounds from US12180207B2 (ARRAY BIOPHARMA INC., priority 2018, dated 2024) can be followed below.

pIC50: −log10 of the molar value.

One may read the pIC50 as the IC50 on a negative log10 scale, so that one unit is a factor of ten.

Test [1] addresses dephosphorylated FGFR1 (SEQ ID NO: 1, amino acids 458 to 765) (Homo sapiens (Human), UniProt P11362). Kind of test: FGFR enzyme binding assay (HTRF tracer displacement), FGFR1. Particulars: 5 nM dephosphorylated FGFR1, average of multiple determinations if made. In short, it runs like this:
(§1)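 Compounds were tested for displacement of a tracer from human FGFR kinase in a time-resolved FRET binding format. After 60 minutes at 22° C, signal was read at two wavelengths and converted to percent of control, normalised between untreated wells and 1 μM reference inhibitor.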
(TR-FRET usually uses a lanthanide donor and a delayed reading to cut background.)

Test [2] concerns the target phosphorylated FGFR3 (SEQ ID NO: 5, amino acids 449 to 759) (Homo sapiens (Human), UniProt P22607). Kind of test: FGFR enzyme binding assay (HTRF tracer displacement), FGFR3. Particulars: 5 nM phosphorylated FGFR3, average of multiple determinations if made. In a few lines: as §1
Test [3] concerns the target recombinant human FGFR1 catalytic domain (amino acids 308-731) (Homo sapiens (Human), UniProt P11362). Kind of test: FGFR1 enzyme activity assay (LanthaScreen TR-FRET). Type of test: biochemical. The note with it: 20 min incubation at 22° C., average of multiple determinations if made, read-out: FGFR1 Enz FRET IC50. In a few lines: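 His-tagged FGFR1 kinase domain with 100 nM Alexa Fluor 647-poly-GT peptide and ATP in pH 7.5 HEPES/MgCl2 buffer with 2% DMSO, 20 min at 22 °C. Quenched with EDTA plus 2 nM Eu-PY20 antibody and read after 60 min. IC50 comes from a 4-parameter fit of percent of control.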

Test [4] deals with recombinant human FGFR2 cytoplasmic domain (amino acids 403-822) (Homo sapiens (Human), UniProt P21802). Kind of test: FGFR2 enzyme activity assay (LanthaScreen TR-FRET). Type of test: biochemical. Particulars: 15 μM ATP, 20 min incubation at 22° C., average of multiple determinations if made, read-out: FGFR2 Enz FRET IC50. In short, it runs like this: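 His-tagged FGFR2 cytoplasmic domain ([…]) with 100 nM Alexa Fluor 647-poly-GT peptide and 15 μM ATP in HEPES/MgCl2/Triton buffer, pH 7.5, 2% DMSO, 20 min at 22 °C. EDTA-quenched, Eu-PY20 antibody added, TR-FRET read after 60 min.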

The target in test [5] is recombinant human FGFR3 (amino acids R397-T806) (Homo sapiens (Human), UniProt P22607). As to the kind of experiment: FGFR3 enzyme activity assay (LanthaScreen TR-FRET). The format is biochemical. The note with it: 25 μM ATP, 10 min incubation at 22° C., average of multiple determinations if made, read-out: FGFR3 Enz FRET IC50. In short, it runs like this: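 GST-HIS6-tagged human FGFR3 (R397-T806) was reacted with 100 nM Alexa Fluor 647-Poly-GT substrate and 25 μM ATP plus compound in HEPES/MgCl2/Triton buffer, pH 7.5, 2% DMSO, for 10 min at 22 °C.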

Test [6] concerns the target FGFR1 (SEQ ID NO: 1, amino acids 458-765) (Homo sapiens (Human), UniProt P11362). As to the kind of experiment: LC/MS FGFR1 kobs assay (covalent protein modification). The format is binding. The note with it: 500 nM FGFR1, 3 μM compound. In short, it runs like this: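 Covalent labeling of FGFR1 kinase domain (aa 458-765) tracked over time by intact-protein LC/MS after formic acid quench. kobs derived by fitting DMSO-normalized percent unmodified FGFR1 to an exponential decay model.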

Test [7] concerns the target FGFR3 (SEQ ID NO: 5, amino acids 449-759) (Homo sapiens (Human), UniProt P22607). As to the kind of experiment: LC/MS FGFR3 kobs assay (covalent protein modification). Type of test: binding. The note with it: 500 nM FGFR3, 3 μM compound. In a few lines:
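Intact-mass LC/MS tracks covalent labeling of the kinase domain over time after acid quench (0.4% formic acid). Unmodified fraction, scaled to DMSO controls, is fitted as exponential decay; kobs is reported, averaged when measured more than once.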

The target of test [8] is HEK-293 cells transfected with dox-inducible human wild type FGFR1 (Homo sapiens (Human), UniProt P11362). As to the kind of experiment: FGFR1 pERK cell assay. Type of test: cell-based. Particulars: HEK-293 dox-inducible FGFR1, 1 hour compound, 100 ng/ml FGF-acidic; maximum concentration 5 μM. As to the method:
FGFR1 pERK Cell Assay: • HEK-293 cells transfected with doxycycline(dox)-inducible human wild type FGFR1 (SEQ ID NO: 1) were plated in a collagen or poly-D-lysine coated 96 well flat bottom plates at 4×10^5 cells/well in complete Dulbecco's Modified Eagle Medium (DMEM) containing 10% FBS and 1 μg/ml doxycycline and allowed to attach for 24 h at 37° C., 5% CO2. Cells were treated with compound using 1:3 serial dilutions with a maximum final concentration of 5 μM. Compound was incubated on cells for 1 hour at 37° C., 5% CO2. Cells were then stimulated with a final concentration of 100 ng/ml human FGF-acidic (R&D Systems Cat number 232-FA/CF) for 5 minutes at 37° C., 5% CO2. Medium was removed, and cells were lysed with lysis buffer containing phosphatase and protease inhibitors. Phospho ERK1/2 was measured using the Meso Scale Discovery sandwich assay (Meso Scale Discovery cat. no. K151DWD). The assay captures phospho ERK1/2 and detects with a sulfo-tagged total ERK1/2 antibody. The chemiluminescent signal was read on the Sector Imager Plate reader. 100 POC was determined using no test compound and 0 POC was determined using a control compound. The POC values were fit to a 4-parameter logistic curve as a function of the concentration of the compound, and the IC50 value is the point where the curve crosses 50 POC.

dephosphorylated FGFR1 (SEQ ID NO: 1, amino acids 458 to 765), sequence (P11362 458-765): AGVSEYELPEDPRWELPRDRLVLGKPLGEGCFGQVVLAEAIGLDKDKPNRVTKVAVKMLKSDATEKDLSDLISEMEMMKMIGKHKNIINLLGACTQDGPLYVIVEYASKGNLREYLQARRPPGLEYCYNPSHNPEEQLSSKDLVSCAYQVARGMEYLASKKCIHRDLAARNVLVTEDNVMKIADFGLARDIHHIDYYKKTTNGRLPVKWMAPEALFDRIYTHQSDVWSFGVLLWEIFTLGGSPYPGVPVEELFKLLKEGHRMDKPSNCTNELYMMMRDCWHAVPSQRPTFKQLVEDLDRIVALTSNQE
FGFR1 (SEQ ID NO: 1, amino acids 458-765), sequence (P11362 458-765): as above
recombinant human FGFR3 (amino acids R397-T806), sequence (P22607 397-806): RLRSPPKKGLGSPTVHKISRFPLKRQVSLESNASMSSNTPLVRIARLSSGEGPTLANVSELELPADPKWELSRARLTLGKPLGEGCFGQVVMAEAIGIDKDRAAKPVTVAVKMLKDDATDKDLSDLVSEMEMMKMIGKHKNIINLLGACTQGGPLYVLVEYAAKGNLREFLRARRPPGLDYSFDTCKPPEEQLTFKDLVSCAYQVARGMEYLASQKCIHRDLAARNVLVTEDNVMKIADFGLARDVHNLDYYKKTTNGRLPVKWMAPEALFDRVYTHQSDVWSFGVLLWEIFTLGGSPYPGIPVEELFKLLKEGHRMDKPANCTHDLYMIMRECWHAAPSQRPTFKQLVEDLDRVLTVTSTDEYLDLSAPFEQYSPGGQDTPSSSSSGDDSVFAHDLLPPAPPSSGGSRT
recombinant human FGFR2 cytoplasmic domain (amino acids 403-822), sequence (P21802 402-821): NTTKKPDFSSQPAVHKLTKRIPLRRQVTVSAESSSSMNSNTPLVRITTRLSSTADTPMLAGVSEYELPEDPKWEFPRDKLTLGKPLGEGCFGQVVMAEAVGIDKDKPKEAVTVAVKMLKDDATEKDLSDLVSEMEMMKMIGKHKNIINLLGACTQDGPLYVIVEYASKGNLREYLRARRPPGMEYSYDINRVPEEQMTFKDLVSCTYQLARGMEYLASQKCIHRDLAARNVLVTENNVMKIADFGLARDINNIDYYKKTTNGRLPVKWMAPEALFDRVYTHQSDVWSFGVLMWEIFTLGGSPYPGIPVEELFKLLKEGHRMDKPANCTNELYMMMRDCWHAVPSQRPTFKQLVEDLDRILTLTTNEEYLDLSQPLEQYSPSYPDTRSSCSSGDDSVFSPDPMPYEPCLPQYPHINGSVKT
phosphorylated FGFR3 (SEQ ID NO: 5, amino acids 449 to 759), sequence (P22607 449-759): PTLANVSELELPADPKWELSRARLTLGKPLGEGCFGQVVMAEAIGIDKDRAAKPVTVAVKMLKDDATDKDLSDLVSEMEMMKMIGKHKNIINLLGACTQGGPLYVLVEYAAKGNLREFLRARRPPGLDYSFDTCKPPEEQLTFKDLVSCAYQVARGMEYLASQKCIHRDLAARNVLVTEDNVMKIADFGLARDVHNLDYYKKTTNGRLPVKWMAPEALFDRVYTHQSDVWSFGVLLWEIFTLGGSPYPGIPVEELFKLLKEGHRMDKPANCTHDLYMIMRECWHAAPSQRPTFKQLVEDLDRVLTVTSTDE
FGFR3 (SEQ ID NO: 5, amino acids 449-759), sequence (P22607 449-759): as above
recombinant human FGFR1 catalytic domain (amino acids 308-731), sequence (P11362 other isoform, or with tags, fused parts or gaps): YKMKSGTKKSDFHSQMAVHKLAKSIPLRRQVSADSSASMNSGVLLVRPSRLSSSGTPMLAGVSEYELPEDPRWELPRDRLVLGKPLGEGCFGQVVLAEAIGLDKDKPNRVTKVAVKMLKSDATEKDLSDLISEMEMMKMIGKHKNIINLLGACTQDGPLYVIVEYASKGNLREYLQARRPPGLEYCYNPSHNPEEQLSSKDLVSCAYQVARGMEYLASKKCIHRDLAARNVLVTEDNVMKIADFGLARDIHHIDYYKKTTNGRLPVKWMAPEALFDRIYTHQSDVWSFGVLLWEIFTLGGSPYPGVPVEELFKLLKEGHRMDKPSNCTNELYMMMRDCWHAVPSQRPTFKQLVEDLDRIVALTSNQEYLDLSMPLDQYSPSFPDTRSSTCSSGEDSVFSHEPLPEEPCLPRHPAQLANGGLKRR
HEK-293 cells transfected with dox-inducible human wild type FGFR1, sequence (P11362 22-822): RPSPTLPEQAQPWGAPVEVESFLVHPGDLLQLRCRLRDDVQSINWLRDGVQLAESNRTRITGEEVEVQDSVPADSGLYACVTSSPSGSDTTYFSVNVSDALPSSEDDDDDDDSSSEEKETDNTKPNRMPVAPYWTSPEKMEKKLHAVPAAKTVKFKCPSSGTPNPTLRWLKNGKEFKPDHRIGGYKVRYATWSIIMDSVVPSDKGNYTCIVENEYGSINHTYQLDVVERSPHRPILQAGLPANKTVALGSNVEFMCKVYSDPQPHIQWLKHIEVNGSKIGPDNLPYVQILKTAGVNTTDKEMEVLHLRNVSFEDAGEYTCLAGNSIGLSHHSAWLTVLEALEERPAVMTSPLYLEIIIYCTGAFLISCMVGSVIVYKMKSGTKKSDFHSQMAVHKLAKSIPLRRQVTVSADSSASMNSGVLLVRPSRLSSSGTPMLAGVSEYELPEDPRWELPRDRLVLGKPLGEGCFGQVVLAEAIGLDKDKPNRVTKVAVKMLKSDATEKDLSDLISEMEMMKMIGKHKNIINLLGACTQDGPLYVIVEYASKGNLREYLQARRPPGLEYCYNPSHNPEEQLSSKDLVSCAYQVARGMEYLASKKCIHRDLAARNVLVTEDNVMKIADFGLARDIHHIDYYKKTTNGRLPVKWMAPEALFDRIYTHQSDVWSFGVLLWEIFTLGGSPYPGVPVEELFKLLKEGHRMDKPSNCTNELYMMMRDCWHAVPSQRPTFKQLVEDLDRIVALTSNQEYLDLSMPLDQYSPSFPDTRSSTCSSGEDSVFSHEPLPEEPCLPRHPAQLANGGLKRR

With `C=CC(=O)N1CCN(c2ccc(-c3cc(OC)c4c(C#N)cnn4c3)cc2)CC1` [Example 99, 6-(4-(4-acryloylpiperazin-1-yl)phenyl)-4-methoxypyrazolo[1,5-a]pyridine-3-carbonitrile], the pIC50 in test [1] is 7.33; in test [2], 8.30; in test [3], 7.89; in test [4] it was 8.30; in test [5], 8.52. Further, in test [6], the “FGFR1 Enz kobs” value is 0.00044 min⁻¹. Further, the “FGFR3 Enz kobs” value in test [7] stood at 0.00353 min⁻¹.
Consider `C=CC(=O)N1CCC(C(=O)N2CCN(c3ccc(-c4cc(OC)c5c(C#N)cnn5c4)cn3)CC2)CC1` [Example 109, 6-(6-(4-(1-acryloylpiperidine-4-carbonyl)piperazin-1-yl)pyridin-3-yl)-4-methoxypyrazolo[1,5-a]pyridine-3-carbonitrile], for which the pIC50 in test [1] was 7.25; in test [2], 8.10; in test [3], 7.92; in test [4], 8.40; in test [5], 8.22. The “FGFR1 Enz kobs” value in test [6] was determined as 0.0006 min⁻¹. Also, in test [7], the “FGFR3 Enz kobs” value was found to be 0.00352 min⁻¹.
Take `C=CC(=O)N1CC[C@@H](C(=O)N2CCN(c3ccc(-c4cc(OC)c5c(C#N)cnn5c4)cn3)CC2)C1` [Example 110, (R)-6-(6-(4-(1-acryloylpyrrolidine-3-carbonyl)piperazin-1-yl)pyridin-3-yl)-4-methoxypyrazolo[1,5-a]pyridine-3-carbonitrile]: the pIC50 in test [1] is 7.24; in test [2], 8.10; in test [3], 7.80; in test [4], 8.30; in test [5], 8.22. Also, the “FGFR1 Enz kobs” value in test [6] was 0.00068 min⁻¹. Also, the “FGFR3 Enz kobs” value in test [7] is 0.00626 min⁻¹.
On to `C=CC(=O)N1CC(C(=O)N2CCN(c3ncc(-c4cc(OC)c5c(C#N)cnn5c4)cn3)CC2)C1` [Example 133, 6-(2-(4-(1-acryloylazetidine-3-carbonyl)piperazin-1-yl)pyrimidin-5-yl)-4-methoxypyrazolo[1,5-a]pyridine-3-carbonitrile], for which the negative-log IC50 (pIC50) in test [1] was 5.53; in test [2], 6.80; in test [3], 6.92; in test [4], 7.20; in test [5], 6.58. Besides, the “FGFR1 Enz kobs” value in test [6] is 0.00274 min⁻¹. Further, the “FGFR3 Enz kobs” value in test [7] amounted to 0.02206 min⁻¹.
As to `COc1cc(-c2cnn(C3CN(CC4CN(C(=O)/C=C/CN5CCCCC5)C4)C3)c2)cn2ncc(C#N)c12` [Example 149, (E)-4-methoxy-6-(1-(1-((1-(4-(piperidin-1-yl)but-2-enoyl)azetidin-3-yl)methyl)azetidin-3-yl)-1H-pyrazol-4-yl)pyrazolo[1,5-a]pyridine-3-carbonitrile], the pIC50 was 6.64 in test [1]; 7.48 in test [2]; 7.41 in test [3]; 8.22 in test [4]; 8.40 in test [5]. The “FGFR1 Enz kobs” value in test [6] came out at 0.00121 min⁻¹. For the same compound, the “FGFR3 Enz kobs” value in test [7] was found to be 0.00455 min⁻¹.
Turning to `C=CC(=O)NC1CCN(C(=O)c2ccc(-c3cc(OC)c4c(C#N)cnn4c3)cc2)CC1` [Example 165, N-(1-(4-(3-cyano-4-methoxypyrazolo [1,5-a]pyridin-6-yl)benzoyl)piperidin-4-yl)acrylamide], the pIC50 in test [1] is 6.10; in test [2], 6.65; in test [3] it was 7.21; in test [4] it was 7.74; in test [5], 7.82. The “FGFR1 Enz kobs” value in test [6] turned out to be 0.00005 min⁻¹. Moreover, the “FGFR3 Enz kobs” value in test [7] stood at 0.0002 min⁻¹.
`C=CC(=O)N1CCC(NC(=O)c2ccc(-c3cc(OC)c4c(C#N)cnn4c3)cc2)CC1` [Example 166, N-(1-acryloylpiperidin-4-yl)-4-(3-cyano-4-methoxypyrazolo [1,5-a]pyridin-6-yl)benzamide]: the pIC50 is 6.89 in test [1]; 7.32 in test [2]; 7.21 in test [3]; 7.82 in test [4]; 7.85 in test [5]. Besides, in test [6], the “FGFR1 Enz kobs” value was determined as 0.00032 min⁻¹. Further, the “FGFR3 Enz kobs” value in test [7] stood at 0.00177 min⁻¹.
Consider `C=CC(=O)NC1CCC(NC(=O)c2ccc(-c3cc(OC)c4c(C#N)cnn4c3)cc2)CC1` (stereo not shown) [Example 167, N-(4-acrylamido-cyclohexyl)-4-(3-cyano-4-methoxypyrazolo [1,5-a]pyridin-6-yl)benzamide], for which the pIC50 in test [1] is 5.95; in test [2] it was 6.72; in test [3] it was 7.17; in test [4], 7.74; in test [5], 7.77. Further, the “FGFR1 Enz kobs” value in test [6] came to 0.00004 min⁻¹. Besides, in test [7], the “FGFR3 Enz kobs” value was found to be 0.00039 min⁻¹.
The compound `C=CS(=O)(=O)N[C@H]1C[C@@H](C(=O)N2CCC(n3cc(-c4cc(OC)c5c(C#N)cnn5c4)cn3)CC2)C1` [Example 193, N-((1s,3s)-3-(4-(4-(3-cyano-4-methoxypyrazolo[1,5-a]pyridin-6-yl)-1H-pyrazol-1-yl)piperidine-1-carbonyl)cyclobutyl) ethenesulfonamide] showed a pIC50 in test [8] of 6.48.
Consider `C=CS(=O)(=O)N[C@H]1C[C@H](C(=O)N2CCC(n3cc(-c4cc(OC)c5c(C#N)cnn5c4)cn3)CC2)C1` [Example 194, N-((1r,3r)-3-(4-(4-(3-cyano-4-methoxypyrazolo[1,5-a]pyridin-6-yl)-1H-pyrazol-1-yl)piperidine-1-carbonyl)cyclobutyl) ethenesulfonamide], for which the pIC50 in test [8] is 6.40.
